Reference: patent US7923465B2, “Cannabinoid receptor ligands, pharmaceutical compositions containing them, and process for their preparation” (priority 2005, dated 2011)
Where two headings read alike, the source gives them in different places.

Assays:
hCB1 [1] = biological target: T1, hCB1 (Homo sapiens, UniProt P21554); test: Agonism of CB1 receptors expressed in CHO cells, forskolin cAMP assay (Protocol IX.2); format: cell-based; design: expressed in transfected cells; host or cells: CHO (h-CB1/CHO, G418-selected); conditions: for activation at 10 µM: CHO
T1 sequence (P21554 whole entry): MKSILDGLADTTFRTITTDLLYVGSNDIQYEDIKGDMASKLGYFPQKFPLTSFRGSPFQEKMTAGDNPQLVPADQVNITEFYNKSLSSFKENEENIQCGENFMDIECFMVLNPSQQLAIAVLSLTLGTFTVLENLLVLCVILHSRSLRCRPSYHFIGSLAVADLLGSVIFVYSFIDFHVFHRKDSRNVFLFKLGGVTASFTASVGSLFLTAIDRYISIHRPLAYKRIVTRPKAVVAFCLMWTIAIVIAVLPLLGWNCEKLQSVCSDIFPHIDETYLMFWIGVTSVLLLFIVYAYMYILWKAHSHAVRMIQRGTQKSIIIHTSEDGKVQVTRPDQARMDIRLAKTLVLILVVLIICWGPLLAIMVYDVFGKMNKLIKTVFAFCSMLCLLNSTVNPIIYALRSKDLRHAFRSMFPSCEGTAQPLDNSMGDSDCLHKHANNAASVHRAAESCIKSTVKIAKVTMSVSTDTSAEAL
How it was run: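 CHO cells stably expressing hCB1 stimulated with forskolin in Krebs buffer with 0.1% FAF BSA and 1 mM IBMX. Lysed cells' cAMP measured by chemiluminescence; EC50 from nonlinear regression of dose-response curves.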

hCB1 [2] = biological target: T1, hCB1; test: Antagonism of CB1 receptors expressed in CHO cells, cAMP assay against CP 55,940 (Protocol IX.1); format: cell-based; design: expressed in transfected cells; host or cells: CHO (h-CB1/CHO, G418-selected); conditions: h-CB1/CHO cells, cAMP, vs 30 nM CP 55,940; for inhibition at 10 µM: read-out: hCB1 Antagonism
hCB2 [3] = biological target: T2, hCB2 (Homo sapiens, UniProt P34972); test: In vitro binding assay using hCB2-CHO membranes, [3H]-CP-55,940 displacement (Protocol IV); design: expressed in transfected cells; host or cells: CHO (hCB2-CHO, generated in-house); conditions: for inhibition at 0.3 µM: 1 h, read-out: % Displacement Protocol IV
T2 sequence (P34972 whole entry): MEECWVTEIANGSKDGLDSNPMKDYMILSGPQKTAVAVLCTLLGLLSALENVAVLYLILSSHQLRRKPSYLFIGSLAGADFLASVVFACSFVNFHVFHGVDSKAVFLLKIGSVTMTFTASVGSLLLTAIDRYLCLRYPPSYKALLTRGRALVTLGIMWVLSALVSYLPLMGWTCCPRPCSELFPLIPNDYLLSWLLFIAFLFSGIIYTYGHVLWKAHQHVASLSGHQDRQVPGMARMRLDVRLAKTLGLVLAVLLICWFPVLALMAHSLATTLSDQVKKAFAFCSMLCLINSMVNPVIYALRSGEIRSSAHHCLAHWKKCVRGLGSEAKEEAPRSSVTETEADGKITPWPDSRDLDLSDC
How it was run: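 Displacement of [3H]-CP-55,940 (0.75 nM) from membranes of CHO cells expressing human CB2 (25-50 μg) was measured in Tris-BSA buffer pH 7.4 with 5 mM MgCl2, 1 mM EDTA, 0.1% BSA, 1 h at 30 °C. Test compounds were at 300 nM final; nonspecific binding defined with 0.5 μM CP-55,940. Values are % displacement of specific binding.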

hCB2 [4] = biological target: T2, hCB2; test: Agonism of CB2 receptors expressed in CHO cells, forskolin cAMP assay (Protocol IX.2); format: cell-based; design: expressed in transfected cells; host or cells: CHO (h-CB2/CHO, G418-selected); conditions: cAMP
How it was run: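 CHO cells expressing h-CB2 were treated with compound in Krebs buffer with 0.1% FAF BSA and 1 mM IBMX, plus 10 uM forskolin, for 30 minutes at room temperature. cAMP in lysates was measured by chemiluminescence. EC50 was derived by nonlinear regression of dose–response curves, with CP 55,940 at 10 μM as reference for CB2.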

[5] = at 10 uM, h-CB1/CHO cells, cAMP
[6] = hCB2-CHO membranes, [3H]-CP-55,940 displacement
[7] = hCB2 Agonism IC50, h-CB2/CHO cells
[8] = bare number, no unit or concentration given

Row | SMILES | hCB1 Agonism (hCB1 [1]; [5]) | hCB1 Antagonism (hCB1 [2]; at 10 uM) | % Displacement Protocol IV (hCB2 [3]; [6]) | melting point | activation at 10 µM (hCB1 [1]; [5]) | inhibition at 10 µM (hCB1 [2]; at 10 uM) | IC50 (hCB2 [4]; [7]) | inhibition at 0.3 µM (hCB2 [3]; [6]) | IC50 (hCB2 [4]; h-CB2/CHO cells, read-out: hCB2 Agonism IC50) | inhibition at 0.3 µM (hCB2 [3]) | hCB1 Agonism (hCB1 [1]; [8]) | inhibition at 1 µM (hCB1 [2]; at 1 uM)
1 | O=C(NN1CCCCC1)c1nn(-c2ccc(Cl)cc2)c2c1C1CC3CC(C1)CC2C3 [Example 140, N(7)-Piperidino-5-(4′-chlorophenyl)-5,6-diazatetracyclo[7.3.1.1^3,11.0^4,8]tetradeca-4(8)-6-diene-7-carboxamide] | 48.88% at | 19.31% at | 15.79% | – | – | – | – | – | – | – | – | –
2 | CN(NC(=O)c1nn(-c2ccc(Cl)cc2)c2c1C1CCC2C1)C1CCCCC1 (centres unmarked) [Example 213, N(3)-[(N-Cyclohexyl-N-methyl)amino]-1-(4-chlorophenyl)-4,5,6,7-tetrahydro-1H-4,7-methano-indazole-3-carboxamide] | – | – | – | 62 °C | 0% | 0% | 12.7 nM | 71.8% | – | – | – | –
3 | O=C(NCc1ccccc1Cl)c1nn(-c2ccc(Cl)cc2)c2c1C1CCC2C1 (centres unmarked) [Example 221, N(3)-(2-Chlorobenzyl)-1-(4-chlorophenyl)-4,5,6,7-tetrahydro-1H-4,7-methano-indazole-3-carboxamide] | – | – | – | 119 to 122 °C | 0% | 0% | – | – | 36.4 nM | 75.7% | – | –
4 | O=C(NCc1ccc(Cl)cc1Cl)c1nn(-c2ccc(Cl)cc2Cl)c2c1C1CCC2C1 (centres unmarked) [Example 251, N(3)-(2,4-Dichlorobenzyl)-1-(2,4-dichlorophenyl)-4,5,6,7-tetrahydro-1H-4,7-methano-indazole-3-carboxamide] | – | – | – | 57 to 59 °C | 37% | 0% | 40.2 nM | 60.2% | – | – | – | –
5 | O=C(NNc1ccccc1Cl)c1nn(-c2ccc(Cl)cc2Cl)c2c1C1CCC2C1 (centres unmarked) [Example 257, N(3)-[(2-Chlorophenyl)amino]-1-(2,4-dichlorophenyl)-4,5,6,7-tetrahydro-1H-4,7-methano-indazole-3-carboxamide] | – | – | – | 180 to 183 °C | – | – | 3.7 nM | 83.9% | – | – | 0 | –
6 | O=C(NNc1ccc(Cl)cc1Cl)c1nn(-c2ccc(Cl)cc2Cl)c2c1C1CCC2C1 (centres unmarked) [Example 260, N(3)-[(2,4-Dichlorophenyl)amino]-1-(2,4-dichlorophenyl)-4,5,6,7-tetrahydro-1H-4,7-methano-indazole-3-carboxamide] | – | – | – | – | – | – | 4.1 nM | 80.2% | – | – | 0 | –
7 | O=C(NNc1ccccc1Br)c1nn(-c2ccc(Cl)cc2Cl)c2c1C1CCC2C1 (centres unmarked) [Example 263, N(3)-[(2-Bromophenyl)amino]-1-(2,4-dichlorophenyl)-4,5,6,7-tetrahydro-1H-4,7-methano-indazole-3-carboxamide] | – | – | – | 159 °C | 16.2% | – | 2.5 nM | 79% | – | – | – | 72.1%
8 | O=C(NC1CCCCC1)c1nn(-c2ccc(Br)cc2)c2c1C1CCC2C1 (centres unmarked) [Example 275, N(3)-Cyclohexyl-1-(4-bromophenyl)-4,5,6,7-tetrahydro-1H-4,7-methano-indazole-3-carboxamide] | – | – | – | 164 °C | 16.4% | 0% | 4.49 nM | 72.3% | – | – | – | –
